The text below walks through data of patent US8614203B2, “Methods for the treatment of a central nervous system injury via a tapered administration protocol” (Emory University, priority 2005, dated 2013).

Data set [1] has as its system bilateral contusions of the medial prefrontal cortex. The data set is described as follows: Example 1: necrotic cavity, lateral ventricle and striatal area measurements after TBI (Nissl/thionine histology). Format: in vivo, Sprague-Dawley rats. Particulars: 4 mg/kg in peanut oil, 21 days after surgery. As to the method:
(§1) Male Sprague-Dawley rats (300 g) were housed individually in wire cages and kept on a reverse light-dark cycle (0800-2000 h). […] All procedures involving animals conformed to guidelines set forth in the Guide for the Care and Use of Laboratory Animals (U.S. Department of Health and Human Services, Pub no. 85-23, 1985) and were approved by the Emory University Institutional Animal Care and Use Committee.
(§2) Bilateral contusions of the medial prefrontal cortex were created by a pneumatic impactor device as previously described. Briefly, rats were given anesthetized with ketamine/xylazine (90 mg/kg; 10 mg/kg) and placed in a stereotaxic apparatus. A craniectomy (diameter 6 mm) was made over the midline of the prefrontal cortex with its center 1.5 mm AP to bregma. After removal of the bone, the tip of the impactor (diameter 5 mm) was moved to +3.0 mm AP; 1.0 mm ML (from bregma), and checked for adequate clearance. Trauma was produced by pneumatically activating the piston to impact −2.0 mm DV (from dura) at a velocity of 3 m/s with a brain contact time of 0.5 seconds.
Control animals received injections of vehicle at similar time-points. Animals were coded with regard to surgery and treatment to prevent experimenter bias during behavioral testing and histological examination.
Twenty-one days after surgery, animals were perfused with 100 ml 0.1 M phosphate-buffered saline (PBS; pH 7.4) followed by 400 ml 4% paraformaldehyde in 0.1 M phosphate buffer (PB; pH 7.4). Following cryoprotection in 30% sucrose, coronal 40-μm-thick sections were cut on a freezing microtome, immediately mounted on gel-coated slides and stained for Nissl with thionine to determine placement and extent of the injury.
Mean area measurements of lesion size were quantified from sections at 15 rostral-caudal levels spaced 300 μm apart. […] Perimeters of the striatum and the lateral ventricles were also traced and mean areas were quantified from 7 rostral-caudal levels (300 μm apart).
(§3) Experienced individuals who were blind to treatment conditions of the study conducted all histological and behavioral analyses. All data were tested for normality and homoschedasticity before being analyzed by parametric analysis of variance (ANOVA). MWM results were analyzed using separate mixed-factorial (4 groups×5 days) analysis of variance (ANOVA) on each of the two 5-day testing periods (acquisition and retention respectively). Results of the BSN task were analyzed using the mixed-factorial ANOVA (4 groups×2 post-injury trials). […] Pearson r coefficients were calculated to determine whether significant correlations could be detected between histological (e.g., lesion size and cellular density) and behavioral parameters (e.g., acquisition and retention of the MWM task and measures of sensory neglect).

Data set [2] has the same test system. The data set is described as follows: Example 1: cell counts of Nissl-stained neurons (STR, GP, DMN, VMN) after TBI. Particulars: 4 mg/kg in peanut oil. Format: in vivo, Sprague-Dawley rats. As to the method:
as §1
as §2, with “seconds. […]” for “seconds.”
Cell counts were done on an Olympus BH-2 microscope equipped with an eyepiece micrometer grid (sample area=40 um^2 at ×400 magnification). […] Only cells with neuronal nuclei and intact membranes were counted as neurons.
as §3

Data set [3] shares this test system. The data set is described as follows: Example 1: bilateral sensory neglect (BSN) task after TBI. Format: in vivo, Sprague-Dawley rats. Particulars: 4 mg/kg, 3 days (LP3); 6 and 20 days post injury. The method, then: as §1
Bilateral contusions of the medial prefrontal cortex were created by a pneumatic impactor device as previously described. Briefly, rats were given anesthetized with ketamine/xylazine (90 mg/kg; 10 mg/kg) and placed in a stereotaxic apparatus. […]
Experienced individuals who were blind to treatment conditions of the study conducted all histological and behavioral analyses. All data were tested for normality and homoschedasticity before being analyzed by parametric analysis of variance (ANOVA). MWM results were analyzed using separate mixed-factorial (4 groups×5 days) analysis of variance (ANOVA) on each of the two 5-day testing periods (acquisition and retention respectively). Results of the BSN task were analyzed using the mixed-factorial ANOVA (4 groups×2 post-injury trials). […]
Measures of attentional abilities, using a bilateral sensory neglect (BSN) task, were recorded one day prior to surgery (baseline) and on postsurgical days 6 and 20. […]

Data set [4] deals with medial frontal cortex injury or sham surgery. Description: Example 3: behavioral testing (anxiety, locomotor, sensory neglect), acute vs tapered withdrawal. The class given is in vivo, Sprague-Dawley rats. As to the method:
(§4) Male Sprague-Dawley rats received either medial frontal cortex injury or sham surgery. Injections were given 1 and 6 hours post-injury, and every 24 hours for 7 days. Treatment groups (n=8) encompassed injured (I) and sham (S) acute withdrawal (AW), tapered withdrawal (TW) and vehicle (V) treatments. TW injections were progressively halved over the final two treatments. Behavioral testing was conducted post-surgery, mid- and post-withdrawal. Activity boxes were used to investigate vertical movements and exploration: Sensory neglect and anxiety behaviors were also analyzed. Brain harvesting was performed at 8 days or 3 weeks post-injury. Perfused tissue sections were analyzed for lesion volume and immunohistochemical response. Fresh brain tissue was flash frozen in chilled 2-methyl butane, and then homogenized for Western blot analysis.

The next data set relates to GFAP. Description: Example 3: GFAP staining (reactive astrocytes). The class given is in vivo, Sprague-Dawley rats. As to the method: as §4
The next data set has as its system BBB. Particulars: in vitro (Betz et al. 1990); cited from earlier work.

As for `CC(=O)[C@H]1CC[C@H]2[C@@H]3CCC4=CC(=O)CC[C@]4(C)[C@H]3CC[C@]12C` [progesterone, pregn-4-ene-3,20-dione], the “enlargement of the lateral ventricles” value in data set [1] (3 or 5 days) is listed as “did not have any effect on this measure”. Further, the mean striatal area entry in data set [1] (3 or 5 days) is recorded as “No between-group differences”. Further, the necrotic cavity size entry in data set [1] (3 days (LP3), vs injured animals) is “tended to be smaller than in the brains of injured animals”. In data set [1] (5 days (LP5), vs vehicle-injected injured animals), the necrotic cavity formation entry was “significant reductions in overall necrotic cavity formation”. For the same compound, the “injury-induced neuronal loss (mean cellular density STR, GP, DMN, VMN)” value in data set [2] (3 days (LP3)) and in data set [2] (5 days (LP5)) was “significant reduction of injury-induced neuronal loss in all brain regions examined” in each case. The “neuronal loss in the VMN, 5 days vs 3 days of treatment” value in data set [2] (5 days compared with 3 days) is given as “more effective than 3 days at attenuating neuronal loss in the VMN”. Besides, in data set [3], the “BSN task performance (latency to remove adhesive stimuli)” value was “impaired on this task compared to control animals at both 6 and 20 days post injury”. Moreover, in data set [4] (injured (AWI) vs tapered withdrawal, injured (TWI)), the “anxiety, locomotor and sensory deficits” value is “increase anxiety, locomotor and sensory deficits compared to tapered progesterone withdrawal”. For the same compound, in data set [4] (injured (AWI), one week later), the “behavioral impairments one week after peak of withdrawal” value is listed as “increased behavioral impairments are still evident in AWI animals”. Also, the motor impairments entry in data set [4] (shams (AWS) vs other shams) is recorded as “increased motor impairments compared to all other shams”. Moreover, the anxiety entry in data set [4] (shams (AWS) vs tapered progesterone rats) is “increased anxiety compared to tapered progesterone rats”. Moreover, the “reactive astrocytes (GFAP staining)” value is “followed by AWL” in the data set with GFAP (acute withdrawal, injured, rank between TWI and VI); “fewest reactive astrocytes” in the data set on GFAP (tapered withdrawal, injured (TWI)). Moreover, in the data set with BBB, the “permeability of the BBB” value is reported as “reduce the permeability of the BBB to macromolecules, but not ions”.
